Where two headings read alike, the source gives them in different places.
Legend:
[1] = 5-FU plasma pharmacokinetics; type: in vivo, human; conditions: for AUC / Cmax / Css: plasma 5-FU, mean ± SD
[2] = tested on: thymidylate synthase (TS); assay: TS tumor expression by immunohistochemistry in paired liver metastasis biopsies; type: in vivo, human; conditions: for Change in TS staining intensity (IHC): day 4 vs pre-treatment
[3] = tested on: thymidylate synthase (TS); assay: TS tumor gene expression by RT-PCR in paired biopsies; type: in vivo, human
[4] = Vorinostat serum pharmacokinetics; type: in vivo, human; conditions: for AUC / Tmax / half-life / Cmax: human, po
[5] = tested on: patients with refractory colorectal cancer; assay: Toxicity assessment per NCI CTC 3.0; type: in vivo, human
[6] = tested on: patients with refractory colorectal cancer
[7] = tested on: thymidylate synthase (TS); conditions: ref [28], [29], cited from earlier work
[8] = tested on: metastatic colorectal cancer; assay: Antitumor response by CT; type: in vivo, human; conditions: 21 assessable patients, vorinostat + FOLFOX
[9] = read-out: Cmax of vorinostat; single-agent 900 mg/m^2 i.v. over 2 hours x 3 days every 3 weeks; ref [26]; cited from earlier work
[10] = maintenance dose 2400 mg/m^2, vorinostat 100 mg
[11] = maintenance dose 2400 mg/m^2, vorinostat 200 mg
[12] = maintenance dose 2400 mg/m^2, vorinostat 300 mg
[13] = maintenance dose 2400 mg/m^2, vorinostat 400 mg
[14] = serum, 100 mg, vorinostat 100 mg PO BID, Day 1, serum, mean
[15] = serum, 200 mg, vorinostat 200 mg PO BID, Day 5 (with FOLFOX), serum, mean
[16] = serum, 300 mg, vorinostat 300 mg PO BID, Day 1, serum, mean
[17] = serum, 300 mg, vorinostat 300 mg PO BID, Day 5 (with FOLFOX), serum, mean
[18] = serum, 400 mg, vorinostat 400 mg PO BID, Day 1, serum, mean
[19] = serum, 400 mg, vorinostat 400 mg PO BID, Day 5 (with FOLFOX), serum, mean
[20] = DL4 vorinostat 400 mg BID+FOLFOX, 4 patients, all cycles
[21] = all dose levels, 21 patients, vorinostat + FOLFOX

O=c1[nH]cc(F)c(=O)[nH]1 [5-FU, 5-Fluorouracil]
AUC [1, 10]: 15.3 ± 5.7 ηg*hr/mL
Cmax [1, 10]: 5.03 ± 4.39 ηg/mL
Css [1, 10]: 0.287 ± 0.044 ηg/mL
AUC [1, 11]: 24 ± 9.11 ηg*hr/mL
Cmax [1, 11]: 13.1 ± 7.96 ηg/mL
Css [1, 11]: 0.274 ± 0.045 ηg/mL
AUC [1, 12]: 68.7 ± 88.1 ηg*hr/mL
Cmax [1, 12]: 24.5 ± 14.5 ηg/mL
Css [1, 12]: 0.396 ± 0.159 ηg/mL
AUC [1, 13]: 46.7 ± 10.6 ηg*hr/mL
Cmax [1, 13]: 26.8 ± 11.4 ηg/mL
Css [1, 13]: 0.432 ± 0.077 ηg/mL
median 5-FU Css ([1]; vorinostat 100 mg BID dose group): 3000 ng/mL
Median 5-FU AUC ([1]; vorinostat 100 mg dose group): 14000 ng·h/mL
median 5-FU Css ([1]; vorinostat 200 mg BID dose group): 16000 ng/mL
Median 5-FU AUC ([1]; vorinostat 200 mg dose group): 26000 ng·h/mL
median 5-FU Css ([1]; vorinostat 300 mg BID dose group): 20000 ng/mL
Median 5-FU AUC ([1]; vorinostat 300 mg dose group): 35000 ng·h/mL
median 5-FU Css ([1]; vorinostat 400 mg BID dose group): 23000 ng/mL
Median 5-FU AUC ([1]; vorinostat 400 mg dose group): 44000 ng·h/mL

O=C(CCCCCCC(=O)Nc1ccccc1)NO [vorinostat, Suberoylanilide Hydroxamic Acid]
Patients with no change in TS staining pattern (IHC) ([2]; 6 paired samples, pre-treatment vs 4th day of vorinostat, cycle 1): 4
Change in TS staining intensity (IHC) ([2]; one patient at DL1 (vorinostat 100 mg PO BID)): decreased intensity from strong to weak
Change in TS staining intensity (IHC) ([2]; one patient at DL4 (vorinostat 400 mg PO BID)): increase in intensity from weak to strong
Patients without any change in TS expression (RT-PCR) ([3]; 6 patients with paired biopsies): four
Patients with down-regulation of TS (RT-PCR) ([3]; paired tumor biopsies, day 4 of vorinostat vs pre-treatment (DL1 and DL4)): 2 of 6
Decrease in TS gene expression ([3]; patient at DL1 (vorinostat 100 mg PO BID)): ~50%
TS gene expression relative to β-actin ([3]; patient at DL1, before vorinostat): 0.92
TS gene expression relative to β-actin ([3]; patient at DL1, following vorinostat treatment): 0.45
Decrease in TS gene expression ([3]; patient at DL4 (vorinostat 400 mg PO BID)): approximately 33%
TS gene expression relative to β-actin ([3]; patient at DL4, before vorinostat): 2.27
TS gene expression relative to β-actin ([3]; patient at DL4, following vorinostat treatment): 1.58
AUC [4, 14]: 2.5 µM·h
Tmax [4, 14]: 2.4 h
half-life ([4]; serum, 100 mg, t1/2, vorinostat 100 mg PO BID, Day 1, serum, mean): 1.5 h
AUC ([4]; serum, 200 mg, vorinostat 200 mg PO BID, Day 1, serum, mean): 1.9 µM·h
AUC [4, 15]: 3.3 µM·h
Cmax ([4]; serum, 200 mg, Cmax, vorinostat 200 mg PO BID, Day 1, serum, mean): 816 nM
Cmax ([4]; serum, 200 mg, Cmax, vorinostat 200 mg PO BID, Day 5 (with FOLFOX), serum, mean): 894 nM
Tmax [4, 15]: 2.7 h
half-life ([4]; serum, 200 mg, t1/2, vorinostat 200 mg PO BID, Day 1, serum, mean): 1.2 h
AUC [4, 16]: 4.4 µM·h
AUC [4, 17]: 6.8 µM·h
Cmax ([4]; serum, 300 mg, Cmax, vorinostat 300 mg PO BID, Day 1, serum, mean): 1460 nM
Cmax ([4]; serum, 300 mg, Cmax, vorinostat 300 mg PO BID, Day 5 (with FOLFOX), serum, mean): 950 nM
Tmax [4, 16]: 1.6 h
Tmax [4, 17]: 2.4 h
half-life ([4]; serum, 300 mg, t1/2, vorinostat 300 mg PO BID, Day 1, serum, mean): 2.3 h
half-life ([4]; serum, 300 mg, t1/2, vorinostat 300 mg PO BID, Day 5 (with FOLFOX), serum, mean): 2.3 h
AUC [4, 18]: 4.5 µM·h
AUC [4, 19]: 7.4 µM·h
Cmax ([4]; serum, 400 mg, Cmax, vorinostat 400 mg PO BID, Day 1, serum, mean): 1510 nM
Cmax ([4]; serum, 400 mg, Cmax, vorinostat 400 mg PO BID, Day 5 (with FOLFOX), serum, mean): 1480 nM
Tmax [4, 18]: 1.9 h
Tmax [4, 19]: 2.8 h
half-life ([4]; serum, 400 mg, t1/2, vorinostat 400 mg PO BID, Day 1, serum, mean): 3.7 h
half-life ([4]; serum, 400 mg, t1/2, vorinostat 400 mg PO BID, Day 5 (with FOLFOX), serum, mean): 2.2 h
Cmax ([4]; serum, Cmax of vorinostat, at all dose levels (100-400 mg PO BID)): < 2000 nM
CLapp ([4]; vorinostat 100 mg PO BID, Day 1, serum, mean): 189 L/h
CLapp ([4]; vorinostat 100 mg PO BID, Day 5 (with FOLFOX), serum, mean): 202 L/h
CLapp ([4]; vorinostat 200 mg PO BID, Day 1, serum, mean): 400 L/h
CLapp ([4]; vorinostat 200 mg PO BID, Day 5 (with FOLFOX), serum, mean): 231 L/h
CLapp ([4]; vorinostat 300 mg PO BID, Day 1, serum, mean): 285 L/h
CLapp ([4]; vorinostat 300 mg PO BID, Day 5 (with FOLFOX), serum, mean): 225 L/h
CLapp ([4]; vorinostat 400 mg PO BID, Day 1, serum, mean): 345 L/h
CLapp ([4]; vorinostat 400 mg PO BID, Day 5 (with FOLFOX), serum, mean): 211 L/h
Change in vorinostat Clapp, day 5 compared to day 1 ([4]; within patients, 14 patients, p=0.003): significant decrease
Change in vorinostat AUC, day 5 compared to day 1 ([4]; within patients, 14 patients, p=0.005): significant increase
Change in vorinostat Tmax, day 5 compared to day 1 ([4]; within patients, 19 patients, p=0.02): statistically significant increase
Neutropenia G3 (patients) [5, 20]: 2
Thrombocytopenia G4 (patients) [5, 20]: 2
Grade 3-4 thrombocytopenia (patients) [5, 21]: 5
Grade 3-4 thrombocytopenia (share of patients) [5, 21]: 24%
Patients with DLT ([6]; DL1 vorinostat 100 mg PO BID + FOLFOX, 3 evaluable patients, cycle 1): None
Patients with DLT ([6]; DL2 vorinostat 200 mg PO BID + FOLFOX, 3 patients, cycle 1): without any DLT
Patients with DLT (fatigue, anorexia, dehydration) ([6]; DL3 vorinostat 300 mg PO BID + FOLFOX, evaluable patients, cycle 1): One of 10
Tolerability of dose-level ([6]; DL4 vorinostat 400 mg PO BID + FOLFOX): intolerable
Patients with DLT (grade 3 fatigue; grade 3 diarrhea in one) ([6]; DL4 vorinostat 400 mg PO BID + FOLFOX, cycle 1): 2 of 4
MTD of vorinostat in combination with FOLFOX ([6]; x 1 week every two weeks, FOLFOX on days 4 and 5): 300 mg PO BID
Down-regulation of TS expression ([7]; in vitro and in vivo models, Q-PCR analysis): ≤ 100 fold
Vorinostat concentration required for effective TS down-regulation ([7]; pre-clinical studies, 24 hours of vorinostat exposure): ≥ 5 µM
Objective response [8]: No patient developed an objective response
Patients with confirmed stable disease [8]: 5
Patients with stable disease on 2-month staging CT scan [8]: Eleven
Cmax [9]: > 20000 nM
